What was measured:
Assay in all cases: relative viability (nuclei count vs DMSO), 5 days (fraction); higher = more cells survive
[1] = compound: Nc1nc2[nH]cc(CCc3ccc(C(=O)N[C@@H](CCC(=O)O)C(=O)O)cc3)c2c(=O)[nH]1 [Pemetrexed] + CS(=O)(=O)N1CCN(Cc2cc3nc(-c4cccc5[nH]ncc45)nc(N4CCOCC4)c3s2)CC1 [Pictilisib] (partner 1 µM)
Summary of the method: (§1)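 After 5 days of treatment, lung cancer cells in 1536-well plates were fixed and stained in a single step (final 0.05% Triton X-100, 1% formaldehyde, 1 ug/ml Hoechst) and their nuclei counted on 4× images. Treatment had been applied by pin tool the day after seeding as one drug alone or as a fixed anchor-drug dose with five library-drug doses (not always all listed) in √10 steps. Relative viability is the nuclei count of treated wells divided by that of vehicle wells, and values are medians of duplicate plates.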

[2] = compound: CC[C@H](Nc1ncnc2[nH]cnc12)c1nc2cccc(F)c2c(=O)n1-c1ccccc1 [Idelalisib] + NC(=O)Nc1cc(-c2cccc(F)c2)sc1C(=O)N[C@H]1CCCNC1 [AZD7762] (partner 0.2 µM)
Summary of the method: as §1

[3] = compound: Nc1nc2[nH]cc(CCc3ccc(C(=O)N[C@@H](CCC(=O)O)C(=O)O)cc3)c2c(=O)[nH]1 [Pemetrexed] + CC1(C)CCC(c2ccc(Cl)cc2)=C(CN2CCN(c3ccc(C(=O)NS(=O)(=O)c4ccc(N[C@H](CCN5CCOCC5)CSc5ccccc5)c(S(=O)(=O)C(F)(F)F)c4)cc3)CC2)C1 [Navitoclax] (partner 0.5 µM)
Summary of the method: as §1

[4] = compound: CC[C@H](Nc1ncnc2[nH]cnc12)c1nc2cccc(F)c2c(=O)n1-c1ccccc1 [Idelalisib] + Cc1nc(NC(=O)N2CCC[C@H]2C(N)=O)sc1-c1ccnc(C(C)(C)C(F)(F)F)c1 [Alpelisib] (partner 2 µM)
Summary of the method: as §1

With NCI-H2170 the relative viability ([1]; first compound 0.002 µM) was 0.303, the relative viability ([1]; first compound 0.006325 µM) was 0.307 and the relative viability ([1]; first compound 0.02 µM) was 0.242. It also gave a relative viability ([1]; first compound 0.06325 µM) of 0.305, a relative viability ([1]; first compound 0.2 µM) of 0.276 and a relative viability ([2]; first compound 0.04 µM) of 0.859. It also gave a relative viability ([2]; first compound 0.1265 µM) of 0.873, a relative viability ([2]; first compound 0.4 µM) of 0.819 and a relative viability ([2]; first compound 1.265 µM) of 0.542. For the same cell line, the relative viability ([2]; first compound 4 µM) was 0.737, the relative viability ([3]; first compound 0.002 µM) was 0.538 and the relative viability ([3]; first compound 0.006325 µM) was 0.587. It also gave a relative viability ([3]; first compound 0.02 µM) of 0.663, a relative viability ([3]; first compound 0.06325 µM) of 0.662 and a relative viability ([3]; first compound 0.2 µM) of 0.5. The relative viability ([4]; first compound 0.04 µM) was 0.795, the relative viability ([4]; first compound 0.1265 µM) was 0.854 and the relative viability ([4]; first compound 0.4 µM) was 0.708. For the same cell line, the relative viability ([4]; first compound 1.265 µM) was 0.688 and the relative viability ([4]; first compound 4 µM) was 0.547.
In the case of NCI-H1666, the relative viability ([1]; first compound 0.002 µM) is reported as 0.373, the relative viability ([1]; first compound 0.006325 µM) is reported as 0.481 and the relative viability ([1]; first compound 0.02 µM) is reported as 0.347. For the same cell line, the relative viability ([1]; first compound 0.06325 µM) was 0.497, the relative viability ([1]; first compound 0.2 µM) was 0.306 and the relative viability ([2]; first compound 0.04 µM) was 0.821. The relative viability ([2]; first compound 0.1265 µM) was 0.808, the relative viability ([2]; first compound 0.4 µM) was 0.878 and the relative viability ([2]; first compound 1.265 µM) was 0.763. For the same cell line, the relative viability ([2]; first compound 4 µM) was 0.851, the relative viability ([3]; first compound 0.002 µM) was 0.877 and the relative viability ([3]; first compound 0.006325 µM) was 0.717. It also gave a relative viability ([3]; first compound 0.02 µM) of 0.915, a relative viability ([3]; first compound 0.06325 µM) of 0.711 and a relative viability ([3]; first compound 0.2 µM) of 0.419. The relative viability ([4]; first compound 0.04 µM) was 1.03, the relative viability ([4]; first compound 0.1265 µM) was 0.909 and the relative viability ([4]; first compound 0.4 µM) was 0.89. It also gave a relative viability ([4]; first compound 1.265 µM) of 0.888 and a relative viability ([4]; first compound 4 µM) of 0.747.
Cell Line PC-3 [JPC-3] has a relative viability ([1]; first compound 0.002 µM) of 0.625, a relative viability ([1]; first compound 0.006325 µM) of 0.687 and a relative viability ([1]; first compound 0.02 µM) of 0.821. It also gave a relative viability ([1]; first compound 0.06325 µM) of 0.743, a relative viability ([1]; first compound 0.2 µM) of 0.663 and a relative viability ([2]; first compound 0.04 µM) of 0.916. For the same cell line, the relative viability ([2]; first compound 0.1265 µM) was 0.889, the relative viability ([2]; first compound 0.4 µM) was 0.806 and the relative viability ([2]; first compound 1.265 µM) was 0.707. It also gave a relative viability ([2]; first compound 4 µM) of 0.569, a relative viability ([3]; first compound 0.002 µM) of 0.726 and a relative viability ([3]; first compound 0.006325 µM) of 0.762. It also gave a relative viability ([3]; first compound 0.02 µM) of 0.796, a relative viability ([3]; first compound 0.06325 µM) of 0.89 and a relative viability ([3]; first compound 0.2 µM) of 0.749. The relative viability ([4]; first compound 0.04 µM) was 1.11, the relative viability ([4]; first compound 0.1265 µM) was 1.02 and the relative viability ([4]; first compound 0.4 µM) was 0.981. For the same cell line, the relative viability ([4]; first compound 1.265 µM) was 0.963 and the relative viability ([4]; first compound 4 µM) was 0.855.
NCI-H1755 gave a relative viability ([1]; first compound 0.002 µM) of 0.327, a relative viability ([1]; first compound 0.006325 µM) of 0.416 and a relative viability ([1]; first compound 0.02 µM) of 0.532. It also gave a relative viability ([1]; first compound 0.06325 µM) of 0.45, a relative viability ([1]; first compound 0.2 µM) of 0.318 and a relative viability ([2]; first compound 0.04 µM) of 0.386. It also gave a relative viability ([2]; first compound 0.1265 µM) of 0.437, a relative viability ([2]; first compound 0.4 µM) of 0.376 and a relative viability ([2]; first compound 1.265 µM) of 0.31. It also gave a relative viability ([2]; first compound 4 µM) of 0.381, a relative viability ([3]; first compound 0.002 µM) of 0.94 and a relative viability ([3]; first compound 0.006325 µM) of 0.918. The relative viability ([3]; first compound 0.02 µM) was 1.03, the relative viability ([3]; first compound 0.06325 µM) was 0.992 and the relative viability ([3]; first compound 0.2 µM) was 0.898. The relative viability ([4]; first compound 0.04 µM) was 0.611, the relative viability ([4]; first compound 0.1265 µM) was 0.9 and the relative viability ([4]; first compound 0.4 µM) was 0.827. The relative viability ([4]; first compound 1.265 µM) was 0.784 and the relative viability ([4]; first compound 4 µM) was 0.735.
With RERF-LC-KJ the relative viability ([1]; first compound 0.002 µM) was 0.579, the relative viability ([1]; first compound 0.006325 µM) was 0.471 and the relative viability ([1]; first compound 0.02 µM) was 0.558. For the same cell line, the relative viability ([1]; first compound 0.06325 µM) was 0.594, the relative viability ([1]; first compound 0.2 µM) was 0.277 and the relative viability ([2]; first compound 0.04 µM) was 1.05. It also gave a relative viability ([2]; first compound 0.1265 µM) of 0.947, a relative viability ([2]; first compound 0.4 µM) of 0.924 and a relative viability ([2]; first compound 1.265 µM) of 1.06. It also gave a relative viability ([2]; first compound 4 µM) of 0.783, a relative viability ([3]; first compound 0.002 µM) of 0.952 and a relative viability ([3]; first compound 0.006325 µM) of 0.722. For the same cell line, the relative viability ([3]; first compound 0.02 µM) was 1.31, the relative viability ([3]; first compound 0.06325 µM) was 1.13 and the relative viability ([3]; first compound 0.2 µM) was 0.741. The relative viability ([4]; first compound 0.04 µM) was 0.735, the relative viability ([4]; first compound 0.1265 µM) was 0.71 and the relative viability ([4]; first compound 0.4 µM) was 0.785. For the same cell line, the relative viability ([4]; first compound 1.265 µM) was 0.77 and the relative viability ([4]; first compound 4 µM) was 0.645.
NCI-H647 gave a relative viability ([1]; first compound 0.002 µM) of 0.283, a relative viability ([1]; first compound 0.006325 µM) of 0.449 and a relative viability ([1]; first compound 0.02 µM) of 0.355. It also gave a relative viability ([1]; first compound 0.06325 µM) of 0.382, a relative viability ([1]; first compound 0.2 µM) of 0.202 and a relative viability ([2]; first compound 0.04 µM) of 0.546. It also gave a relative viability ([2]; first compound 0.1265 µM) of 0.631, a relative viability ([2]; first compound 0.4 µM) of 0.409 and a relative viability ([2]; first compound 1.265 µM) of 0.198. For the same cell line, the relative viability ([2]; first compound 4 µM) was 0.397, the relative viability ([3]; first compound 0.002 µM) was 1.13 and the relative viability ([3]; first compound 0.006325 µM) was 0.987. For the same cell line, the relative viability ([3]; first compound 0.02 µM) was 1.15, the relative viability ([3]; first compound 0.06325 µM) was 0.954 and the relative viability ([3]; first compound 0.2 µM) was 0.308. For the same cell line, the relative viability ([4]; first compound 0.04 µM) was 1.27, the relative viability ([4]; first compound 0.1265 µM) was 1.17 and the relative viability ([4]; first compound 0.4 µM) was 0.845. It also gave a relative viability ([4]; first compound 1.265 µM) of 1.12 and a relative viability ([4]; first compound 4 µM) of 0.68.
Work on BEN yielded a relative viability ([1]; first compound 0.002 µM) of 0.53, a relative viability ([1]; first compound 0.006325 µM) of 0.564 and a relative viability ([1]; first compound 0.02 µM) of 0.591. For the same cell line, the relative viability ([1]; first compound 0.06325 µM) was 0.539, the relative viability ([1]; first compound 0.2 µM) was 0.525 and the relative viability ([2]; first compound 0.04 µM) was 0.748. For the same cell line, the relative viability ([2]; first compound 0.1265 µM) was 0.739, the relative viability ([2]; first compound 0.4 µM) was 0.765 and the relative viability ([2]; first compound 1.265 µM) was 0.584. It also gave a relative viability ([2]; first compound 4 µM) of 0.664, a relative viability ([3]; first compound 0.002 µM) of 0.0683 and a relative viability ([3]; first compound 0.006325 µM) of 0.0717. The relative viability ([3]; first compound 0.02 µM) was 0.0575, the relative viability ([3]; first compound 0.06325 µM) was 0.0762 and the relative viability ([3]; first compound 0.2 µM) was 0.0946. The relative viability ([4]; first compound 0.04 µM) was 1.05, the relative viability ([4]; first compound 0.1265 µM) was 1.13 and the relative viability ([4]; first compound 0.4 µM) was 0.853. It also gave a relative viability ([4]; first compound 1.265 µM) of 1.04 and a relative viability ([4]; first compound 4 µM) of 0.853.
Cell Line 201T has a relative viability ([1]; first compound 0.002 µM) of 0.625, a relative viability ([1]; first compound 0.006325 µM) of 0.698 and a relative viability ([1]; first compound 0.02 µM) of 0.715. The relative viability ([1]; first compound 0.06325 µM) was 0.632, the relative viability ([1]; first compound 0.2 µM) was 0.5 and the relative viability ([2]; first compound 0.04 µM) was 0.712. It also gave a relative viability ([2]; first compound 0.1265 µM) of 0.587, a relative viability ([2]; first compound 0.4 µM) of 0.523 and a relative viability ([2]; first compound 1.265 µM) of 0.377. For the same cell line, the relative viability ([2]; first compound 4 µM) was 0.583, the relative viability ([3]; first compound 0.002 µM) was 1.11 and the relative viability ([3]; first compound 0.006325 µM) was 1.2. For the same cell line, the relative viability ([3]; first compound 0.02 µM) was 1.24, the relative viability ([3]; first compound 0.06325 µM) was 1.26 and the relative viability ([3]; first compound 0.2 µM) was 1.18. It also gave a relative viability ([4]; first compound 0.04 µM) of 0.974, a relative viability ([4]; first compound 0.1265 µM) of 0.987 and a relative viability ([4]; first compound 0.4 µM) of 0.937. For the same cell line, the relative viability ([4]; first compound 1.265 µM) was 0.963 and the relative viability ([4]; first compound 4 µM) was 0.872.

From the supplement of paper PMC10307832
